Assay results as given in ChEMBL document CHEMBL1134008, “Cis- and trans-N-benzyl-octahydrobenzo[g]quinolines. Adrenergic and dopaminergic activity studies” (Bioorg Med Chem Lett, 2001).

What was measured:
Type in all cases: cell membranes, Membrane
D(2) dopamine receptor [1] = biological target: T1, D(2) dopamine receptor (Rattus norvegicus, UniProt P61169); assay: Inhibition of binding of [3H]spiroperidol to Dopamine receptor D2 in rat striatal membranes at 5 uM concentration; NA is not active
[2] = biological target: T2, Adrenergic receptor alpha-1 (Rattus norvegicus, UniProt P15823+P23944+P43140); assay: Inhibition of binding of [3H]prazosin to Alpha-1 adrenergic receptor in rat cortical membranes
T2 sequence (P15823 whole entry): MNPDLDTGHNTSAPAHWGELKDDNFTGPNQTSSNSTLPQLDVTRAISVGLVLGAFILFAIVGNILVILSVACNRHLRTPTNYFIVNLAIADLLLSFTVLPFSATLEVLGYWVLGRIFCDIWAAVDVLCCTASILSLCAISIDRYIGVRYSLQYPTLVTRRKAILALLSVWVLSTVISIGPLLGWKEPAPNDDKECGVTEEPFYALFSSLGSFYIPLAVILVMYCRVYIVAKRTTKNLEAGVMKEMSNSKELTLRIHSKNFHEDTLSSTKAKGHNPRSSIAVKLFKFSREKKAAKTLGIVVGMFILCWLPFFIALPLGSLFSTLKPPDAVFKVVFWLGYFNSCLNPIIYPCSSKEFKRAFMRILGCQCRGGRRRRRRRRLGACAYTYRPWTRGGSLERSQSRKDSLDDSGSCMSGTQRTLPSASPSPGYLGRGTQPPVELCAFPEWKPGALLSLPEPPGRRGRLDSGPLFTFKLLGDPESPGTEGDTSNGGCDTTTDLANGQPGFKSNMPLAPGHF
T2 sequence (P23944 whole entry): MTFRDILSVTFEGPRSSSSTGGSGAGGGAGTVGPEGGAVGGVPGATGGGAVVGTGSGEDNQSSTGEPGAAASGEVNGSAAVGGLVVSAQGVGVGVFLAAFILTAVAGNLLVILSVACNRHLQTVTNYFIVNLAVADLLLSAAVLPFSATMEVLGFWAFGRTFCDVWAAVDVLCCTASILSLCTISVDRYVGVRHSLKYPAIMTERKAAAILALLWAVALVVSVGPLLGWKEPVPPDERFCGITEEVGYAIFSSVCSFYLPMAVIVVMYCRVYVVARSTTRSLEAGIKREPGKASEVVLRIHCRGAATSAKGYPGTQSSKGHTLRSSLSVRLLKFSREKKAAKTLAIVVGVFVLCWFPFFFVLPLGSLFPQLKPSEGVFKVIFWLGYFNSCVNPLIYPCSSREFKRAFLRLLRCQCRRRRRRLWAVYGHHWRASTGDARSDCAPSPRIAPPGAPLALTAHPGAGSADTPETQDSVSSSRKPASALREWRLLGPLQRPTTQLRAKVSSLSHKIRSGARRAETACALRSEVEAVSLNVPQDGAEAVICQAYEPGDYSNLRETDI
T2 sequence (P43140 whole entry): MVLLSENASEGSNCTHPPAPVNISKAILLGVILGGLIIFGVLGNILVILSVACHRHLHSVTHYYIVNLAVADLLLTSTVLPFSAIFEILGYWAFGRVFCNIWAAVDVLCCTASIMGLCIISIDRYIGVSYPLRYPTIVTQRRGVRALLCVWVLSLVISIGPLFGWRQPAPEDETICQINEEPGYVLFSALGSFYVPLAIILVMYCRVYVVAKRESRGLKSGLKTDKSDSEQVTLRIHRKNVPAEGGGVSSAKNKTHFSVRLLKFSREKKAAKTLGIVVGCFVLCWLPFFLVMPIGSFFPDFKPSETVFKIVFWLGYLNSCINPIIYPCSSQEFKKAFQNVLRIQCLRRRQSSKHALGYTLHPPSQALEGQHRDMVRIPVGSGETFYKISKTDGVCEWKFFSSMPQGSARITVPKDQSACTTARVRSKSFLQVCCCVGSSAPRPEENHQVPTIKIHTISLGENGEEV

[3] = biological target: T3, Adrenergic receptor alpha-2 (Rattus norvegicus, UniProt P22086+P19328+P22909); assay: Inhibition of binding of [3H]rauwolscine to Alpha-2 adrenergic receptor in rat cortical membranes
T3 sequence (P22086 whole entry): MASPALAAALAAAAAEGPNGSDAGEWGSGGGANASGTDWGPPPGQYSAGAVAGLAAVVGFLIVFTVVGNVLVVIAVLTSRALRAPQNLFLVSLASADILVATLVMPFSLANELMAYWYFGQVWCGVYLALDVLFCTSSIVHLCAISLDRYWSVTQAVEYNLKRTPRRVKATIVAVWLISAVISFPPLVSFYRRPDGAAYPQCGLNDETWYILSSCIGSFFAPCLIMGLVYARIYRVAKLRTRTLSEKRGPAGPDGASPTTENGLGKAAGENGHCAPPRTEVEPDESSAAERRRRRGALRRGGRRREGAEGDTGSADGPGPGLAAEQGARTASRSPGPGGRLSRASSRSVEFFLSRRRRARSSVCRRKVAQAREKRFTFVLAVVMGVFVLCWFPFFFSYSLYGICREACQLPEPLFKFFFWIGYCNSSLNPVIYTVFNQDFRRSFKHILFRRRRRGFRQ
T3 sequence (P19328 whole entry): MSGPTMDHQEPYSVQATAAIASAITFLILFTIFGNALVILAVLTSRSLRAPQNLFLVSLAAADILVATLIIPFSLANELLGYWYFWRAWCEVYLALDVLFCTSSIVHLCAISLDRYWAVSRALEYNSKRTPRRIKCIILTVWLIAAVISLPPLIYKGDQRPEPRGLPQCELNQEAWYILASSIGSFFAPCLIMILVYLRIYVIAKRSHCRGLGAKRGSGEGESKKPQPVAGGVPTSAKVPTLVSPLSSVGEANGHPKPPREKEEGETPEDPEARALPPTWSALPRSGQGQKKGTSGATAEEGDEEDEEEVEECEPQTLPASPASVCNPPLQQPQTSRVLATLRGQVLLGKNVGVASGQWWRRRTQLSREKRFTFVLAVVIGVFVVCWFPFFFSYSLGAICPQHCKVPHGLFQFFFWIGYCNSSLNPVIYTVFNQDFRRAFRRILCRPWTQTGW
T3 sequence (P22909 whole entry): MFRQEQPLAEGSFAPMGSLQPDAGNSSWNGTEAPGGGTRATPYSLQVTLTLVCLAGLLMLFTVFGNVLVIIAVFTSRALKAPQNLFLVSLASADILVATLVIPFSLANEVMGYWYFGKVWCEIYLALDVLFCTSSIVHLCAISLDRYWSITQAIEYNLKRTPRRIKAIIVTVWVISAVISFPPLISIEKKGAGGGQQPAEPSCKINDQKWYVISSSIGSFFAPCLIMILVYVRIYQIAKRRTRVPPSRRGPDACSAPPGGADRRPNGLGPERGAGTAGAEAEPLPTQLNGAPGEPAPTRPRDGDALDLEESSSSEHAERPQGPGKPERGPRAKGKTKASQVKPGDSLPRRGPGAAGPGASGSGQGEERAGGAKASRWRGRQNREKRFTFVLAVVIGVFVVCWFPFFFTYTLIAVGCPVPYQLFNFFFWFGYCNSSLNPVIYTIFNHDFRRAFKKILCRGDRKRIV

D(1A) dopamine receptor [4] = biological target: T4, D(1A) dopamine receptor (Rattus norvegicus, UniProt P18901); assay: Inhibition of binding of [3H]SCH-23390 to Dopamine receptor D1 in rat striatal membranes at 5 uM concentration; NA is not active
D(1A) dopamine receptor [5] = biological target: T4, D(1A) dopamine receptor; assay: Inhibition of binding of [3H]SCH-23390 to Dopamine receptor D1 in rat striatal membranes
D(2) dopamine receptor [6] = biological target: T1, D(2) dopamine receptor; assay: Inhibition of binding of [3H]spiroperidol to Dopamine receptor D2 in rat striatal membranes

T1 sequence (P61169 whole entry): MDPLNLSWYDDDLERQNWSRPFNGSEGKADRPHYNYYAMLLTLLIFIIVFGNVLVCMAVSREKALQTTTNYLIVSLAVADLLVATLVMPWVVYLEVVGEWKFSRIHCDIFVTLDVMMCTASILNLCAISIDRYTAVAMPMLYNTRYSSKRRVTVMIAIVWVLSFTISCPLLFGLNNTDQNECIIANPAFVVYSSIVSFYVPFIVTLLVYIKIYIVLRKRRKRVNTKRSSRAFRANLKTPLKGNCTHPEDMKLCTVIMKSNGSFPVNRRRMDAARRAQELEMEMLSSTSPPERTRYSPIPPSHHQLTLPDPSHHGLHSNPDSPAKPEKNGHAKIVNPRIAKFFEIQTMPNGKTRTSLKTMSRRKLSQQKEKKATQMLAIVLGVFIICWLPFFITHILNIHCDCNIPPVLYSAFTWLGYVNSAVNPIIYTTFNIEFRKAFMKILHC
T4 sequence (P18901 whole entry): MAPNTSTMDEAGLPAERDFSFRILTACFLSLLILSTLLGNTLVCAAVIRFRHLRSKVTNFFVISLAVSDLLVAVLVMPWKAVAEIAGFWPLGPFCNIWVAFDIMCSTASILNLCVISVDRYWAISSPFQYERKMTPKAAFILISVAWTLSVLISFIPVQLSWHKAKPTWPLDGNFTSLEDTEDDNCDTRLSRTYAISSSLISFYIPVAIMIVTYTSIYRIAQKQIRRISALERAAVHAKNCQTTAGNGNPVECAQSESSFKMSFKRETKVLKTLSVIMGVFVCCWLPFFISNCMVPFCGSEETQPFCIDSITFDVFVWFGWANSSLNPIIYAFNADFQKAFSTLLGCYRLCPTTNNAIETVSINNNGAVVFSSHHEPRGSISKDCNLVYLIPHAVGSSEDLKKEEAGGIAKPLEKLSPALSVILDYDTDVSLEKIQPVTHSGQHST

| Compound | IC50 (D(2) dopamine receptor [1]) | IC50 [2] [µM] | IC50 [3] [µM] | IC50 (D(1A) dopamine receptor [4]) | IC50 (D(1A) dopamine receptor [5]) [µM] | IC50 (D(2) dopamine receptor [6]) [µM] |
| --- | --- | --- | --- | --- | --- | --- |
| COc1cccc2c1CC1CCCN(Cc3ccccc3)C1C2 (stereo in doubt; cis) | Not Active | 667 | 38 | Not Active | – | – |
| c1ccc2c(c1)CC1CCCNC1C2 (stereo unspecified) | Not Active | – | 130 | Not Active | – | – |
| c1ccc(CN2CCCC3Cc4ccccc4CC32)cc1 (stereo in doubt; cis) | – | 739 | 214 | Not Active | – | – |
| COc1cccc2c1CC1CCCN(Cc3ccccc3)C1C2 (stereo in doubt; trans) | – | 588 | 6 | – | 0.45 | – |
| NC1CCc2c(ccc(O)c2O)C1 (racemic) | – | – | – | – | – | 0.7 |
| COc1cccc2c1CC1CCCNC1C2 (trans isomer) | Not Active | – | 67.5 | Not Active | – | – |
| c1ccc(CN2CCCC3Cc4ccccc4CC32)cc1 (stereo in doubt; trans) | Not Active | 218 | 5.9 | – | 1.2 | – |
